# PMC10064330, “Reversible Dual-Covalent Molecular Locking of the 14-3-3/ERRγ Protein–Protein Interaction as a Molecular Glue Drug Discovery Approach” (Journal of the American Chemical Society, 2023)
# Molecular target: T1, 14-3-3γ/ERRγ complex (Homo sapiens, UniProt P61981+P62508)
# T1 construct: made in house; host or cells: E. coli NiCo21 (DE3)
# Test: Intact mass spectrometry (QTOF-MS) crosslinking of 14-3-3γ and ERRγ
# Type: biochemical
# Details: 14-3-3γ 5 μM; for consumption of apo-14-3-3γ into crosslinked ternary complex: ERRγ 25 μM, compound 50 μM, NaCNBH3 reduction, 4 h
# Description: To further confirm the covalent crosslinking in solution, we performed intact mass spectrometry (MS) on the 14-3-3γ/ERRγ/5 and the 14-3-3γ/ERRγ/10 protein complexes. To ensure detection of the acid-labile imine-bonded complexes, the covalent imine bond was reduced in situ to the corresponding secondary amine using sodium cyanoborohydride. Samples were incrementally taken over 4 h and analyzed with high-resolution MS to determine crosslinking of the 14-3-3γ/ERRγ complex (Figure 2f–h and Figures S8 and S9). Intact MS analysis confirmed time-dependent crosslinking of the ternary complex (14-3-3γ/ERRγ/lock). […] A similar result was also observed for 10 (calculated mass: 33,080.4 Da) (Figure S11a–c).
# Figure S8a. QTOF-MS analysis of 14-3-3/ERRg/5 ternary complex formation. LC-MS analysis of time-dependent crosslinking experiment of 14-3-3γ (5 µM) and ERRγ (25 µM) phosphopeptide by compound 5 (50 µM). Controls of just apo 14-3-3γ protein and protein incubated with compound 5 without ERRγ peptide are added. (Left) Chromatograms obtained for each sample after x amount of incubation. […] Calculated mass 14 -3-3γ […]
# Figure S9. […] Based on the determined peak intensity of apo 14-3-3γ (peak A) and 14-3-3γ in complex with ERRg and staple 5 (peak B), the percentage of ternary complex is determined for each time point. […]
# Different Scanning Fluorimetry (DSF) assays were performed using 40 µL samples containing 5 µM 14-3-3γ, 50 µM ERRγ pS179 9-mer peptide, 200 µM compound (or 1% DMSO) and 5x ProteoOrange (Lumiprobe, 5000x stock in DMSO) in 10 mM Hepes, 150 mM NaCl, 50 µM TCEP (pH 8.0). […] Fluorescence intensity was determined using excitation 470/40 nm and emission 570/20 nm filters. Based on these melting curves, the negative derivative melting curve is obtained from which the melting temperature Tm was determined. ΔTm values represent the differences in melting temperature relative to the DMSO control. All described melting temperatures are based on three independent experiments from which the average and standard deviations were determined using excel. […]
# T1 sequence (P61981 whole entry, other chains not shown): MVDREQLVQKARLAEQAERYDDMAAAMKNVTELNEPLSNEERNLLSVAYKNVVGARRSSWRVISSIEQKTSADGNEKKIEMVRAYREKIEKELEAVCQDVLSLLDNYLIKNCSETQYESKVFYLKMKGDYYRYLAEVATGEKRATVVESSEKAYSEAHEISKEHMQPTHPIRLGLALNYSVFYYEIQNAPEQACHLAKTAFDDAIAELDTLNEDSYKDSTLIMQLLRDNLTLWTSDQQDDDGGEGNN
smiles,measurement,setting,value
CN(C)CCSSCCN(C)C(=O)c1ccc(C=O)c(F)c1 [compound 5],consumption of apo-14-3-3γ into crosslinked ternary complex,,near quantitative consumption of apo-14-3-3γ
same,crosslinking of 14-3-3/ERRγ in isolation,"only ERRγ phosphopeptide 10 μM, 5 50 μM",~70%
CN(C)CCSSCCN(C)C(=O)c1cc(Br)cc(C=O)c1 [compound 10],consumption of apo-14-3-3γ into crosslinked ternary complex,,complete consumption of apo-14-3-3γ was not observed
